Data published in article PMC8021898 (Frontiers in Pharmacology, 2021).
≈ marks a conversion by molar mass, not a printed value. Where “and” joins values, the source holds several entries; their conditions need not be identical. Identical values can stand only once. Like-named read-outs stand apart in the source and are kept apart here.

Legend:
[1] = target: human sigma-2 (TMEM97) (Homo sapiens, UniProt Q5BJF2); conditions: concentrations up to 10 μM
Description: Sigma-2 competition curves were performed in a similar manner, using Expi293 cells overexpressing the human sigma-2 (TMEM97) and using [^3H] DTG as the radioactive probe.

[2] = target: T1, H2 (Homo sapiens, UniProt P25021); assay: cell-based
T1 sequence (P25021 whole entry): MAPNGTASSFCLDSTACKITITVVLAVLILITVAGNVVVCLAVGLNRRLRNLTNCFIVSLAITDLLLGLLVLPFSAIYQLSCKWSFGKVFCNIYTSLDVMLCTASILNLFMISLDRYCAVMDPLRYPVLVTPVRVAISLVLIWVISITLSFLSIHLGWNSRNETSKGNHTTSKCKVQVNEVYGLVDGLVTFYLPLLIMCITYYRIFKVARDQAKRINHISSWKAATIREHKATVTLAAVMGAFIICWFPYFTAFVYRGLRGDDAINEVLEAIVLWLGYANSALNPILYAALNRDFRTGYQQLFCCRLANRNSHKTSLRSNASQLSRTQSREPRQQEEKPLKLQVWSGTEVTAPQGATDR
Description: cAMP production was determined in transiently transfected HEK293T cells ([Stauch et al., 2019]) with minor modifications. In brief, HEK293 T cells were co-transfected with H2 and GloSensor cAMP reporter DNA (Promega) overnight and plated in poly-l-lysine coated clear bottom 384-well white plate at a density of 15,000 cells/well in 40 ul of DMEM supplemented with 1% dialyzed FBS for 6 h. Medium was removed and cells were loaded with 3 mM luciferin in drug buffer (20 ul/well, 1x HBSS, 20 mM HEPES, pH 7.40) for 30 min. Test compounds were prepared in the same drug buffer supplemented with 1 mg/ml BSA and added (20 ul/well at 2x) to cells. Luminescence was counted after 20 min and results were analyzed in Prism 8.4.

[3] = for Css Free drug Concentration (mass/volume) / Css Free drug Concentration (molarity): approximately 20% protein bound
[4] = test system: COVID-19 patient; conditions: one patient, 60 mg p.o. t.i.d. for 30 days, started day 8 of symptoms; anecdotal
[5] = target: T2, histamine H2 receptor (Homo sapiens, UniProt P25021); assay: cell-based
T2 sequence (P25021 whole entry): as above

[6] = test system: H2 in primary human neutrophils; conditions: ref Reher et al., 2012, cited from earlier work
[7] = test system: hospitalized COVID-19 patients; conditions: ref Cheung et al., 2020, Shoaibi et al., Yeramaneni et al.; cited from earlier work
[8] = test system: H2 in primary human neutrophils; conditions: ref Reher et al., 2012, cited from earlier work; remark: listed apart in the source
[9] = test system: H2 in primary human eosinophils; conditions: ref Reher et al., 2012, cited from earlier work
[10] = target: T2, histamine H2 receptor; conditions: partial agonist
[11] = test system: SARS-CoV-2; assay: microbe, parasite or virus in culture; type: cell-based; conditions: for IC50: read-out: Antiviral: IC50; for IC90: read-out: Antiviral: IC90; for inhibition of SARS-CoV-2 infection: Vero E6 cell-based assay
[12] = target: human sigma-1 receptor (Homo sapiens, UniProt Q99720); conditions: concentrations up to 10 μM
Sequence of human sigma-1 receptor (Q99720 whole entry): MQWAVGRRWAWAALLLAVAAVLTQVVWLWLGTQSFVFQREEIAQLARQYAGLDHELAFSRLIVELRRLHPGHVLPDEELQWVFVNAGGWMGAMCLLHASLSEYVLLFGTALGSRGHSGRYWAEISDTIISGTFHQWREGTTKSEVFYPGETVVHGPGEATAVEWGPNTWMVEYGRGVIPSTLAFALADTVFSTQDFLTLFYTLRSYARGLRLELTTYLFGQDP
Description: All reactions were performed in triplicate using a 96-well block. […] Data were analyzed using GraphPad Prism software.

[13] = target: T1, H2; assay: biochemical; conditions: affinity (Ki) for histamine H2 receptor
Description: Radioligand binding assays with human histamine receptors. Radioligand binding assays with human H1, H2, H3, and H4 receptors were conducted according to the NIMH PDSP assay protocol (https://pdsp.unc.edu/pdspweb/?site=assays) and published procedures ([Besnard et al., 2012]).

[14] = test system: human skin mast cells; conditions: 10 μM pre-incubation; ref Lippert et al., 2004; cited from earlier work
[15] = target: bradykinin receptor B1 (Homo sapiens, UniProt P46663); conditions: quadruplicate replicate
Sequence of bradykinin receptor B1 (P46663 whole entry): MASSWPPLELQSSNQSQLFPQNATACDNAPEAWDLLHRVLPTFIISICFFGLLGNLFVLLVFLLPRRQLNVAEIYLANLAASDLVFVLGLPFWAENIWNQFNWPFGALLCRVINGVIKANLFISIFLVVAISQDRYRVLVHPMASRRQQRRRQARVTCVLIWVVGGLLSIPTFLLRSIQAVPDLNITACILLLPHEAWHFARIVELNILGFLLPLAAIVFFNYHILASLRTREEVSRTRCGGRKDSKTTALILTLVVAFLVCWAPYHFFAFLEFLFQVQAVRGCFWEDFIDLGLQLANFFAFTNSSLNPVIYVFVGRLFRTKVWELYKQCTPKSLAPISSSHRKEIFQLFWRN
Description: (§1) Human G-coupled Protein Receptor genome (GPCRome) screening was carried out according to published procedure ([Kroeze et al., 2015]) with minor modifications. In brief, HTLA cells were subcultured into poly-L-lysine coated clear bottom 384-well white plates at a density of 6,000 cells/well in 40 ul of DMEM supplemented with 1% dialyzed FBS for overnight, transfected with 20 ng/well Tango constructs for 24 h, received drug stimulation (10 uM final) for another 24 h. Medium and drug solutions were removed and Bright-Glo Reagents (Promega) were added for luminescence counting. For concentration response assays, HTLA cells were transfected with Tango constructs for 24 h, plated in poly-L-Lysine coated clear bottom 384-well white plates at a density of 10,000 cells/well in 40 ul of DMEM supplemented with 1% dialyzed FBS for 6 h before receiving drugs for overnight stimulation. Plates were then counted as above.

[16] = test system: 318 known human GPCRs; conditions: 10 microM final; threshold >3x basal; follow up studies
Description: as §1

[17] = target: bradykinin receptor B2 (Homo sapiens, UniProt P30411); conditions: quadruplicate replicate
Sequence of bradykinin receptor B2 (P30411 whole entry): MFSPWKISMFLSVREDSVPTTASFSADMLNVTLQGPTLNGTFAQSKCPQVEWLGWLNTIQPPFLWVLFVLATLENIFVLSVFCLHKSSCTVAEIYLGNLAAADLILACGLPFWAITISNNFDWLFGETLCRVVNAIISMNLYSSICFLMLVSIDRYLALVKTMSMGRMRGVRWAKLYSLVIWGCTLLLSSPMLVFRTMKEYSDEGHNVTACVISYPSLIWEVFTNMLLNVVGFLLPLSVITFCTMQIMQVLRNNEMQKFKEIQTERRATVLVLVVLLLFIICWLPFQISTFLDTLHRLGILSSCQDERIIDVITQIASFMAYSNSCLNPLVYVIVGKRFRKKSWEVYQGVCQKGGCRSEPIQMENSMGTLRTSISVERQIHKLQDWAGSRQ
Description: as §1

[18] = target: histamine H2 receptor; conditions: cited from earlier work
[19] = in vitro; conditions: African green monkey
[20] = test system: Vero E6 cells; assay: MTT cytotoxicity assay in uninfected Vero E6 cells; conditions: uninfected Vero E6, MTT
[21] = MTT cytotoxicity assay in uninfected Vero E6 cells; conditions: African green monkey, uninfected Vero E6 cells
[22] = 40 mg tablet p.o. t.i.d., pK data reported by Lin et al. (1987)
[23] = 40 mg tablet p.o. t.i.d., pK data reported by Yeh et al. (1987)
[24] = Severe acute respiratory syndrome coronavirus 2, Vero C1008, Vero E6, 48 h, MOI 0.025
[25] = Severe acute respiratory syndrome coronavirus 2, Vero C1008, 48 h

Sequence of human sigma-2 (TMEM97) (Q5BJF2 whole entry): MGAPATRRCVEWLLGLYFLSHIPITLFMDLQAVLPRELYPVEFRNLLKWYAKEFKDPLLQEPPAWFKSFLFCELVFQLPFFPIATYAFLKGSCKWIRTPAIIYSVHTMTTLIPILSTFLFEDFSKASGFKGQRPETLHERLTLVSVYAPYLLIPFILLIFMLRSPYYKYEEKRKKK

SMILES: NC(N)=Nc1nc(CSCCC(N)=NS(N)(=O)=O)cs1 [Famotidine]
- displacement of radioligand probe, sigma-2 [1]: no detectable displacement
- EC50 [2]: 33 nM
- activity on H2 in the presence of histamine ([2]; Figure 4B): antagonist activity
- inverse agonist activity, reduction of basal activity ([2]; cAMP, H2): 75%
- Css Free drug Concentration (mass/volume) ([3]; 20 mg capsule p.o. b.i.d.): 29.4 µg/L
- Css Free drug Concentration (molarity) ([3]; 20 mg capsule p.o. b.i.d.): 87 nM
- Css Free drug Concentration (mass/volume) ([3]; 20 mg capsule p.o. q.d.): 14.7 µg/L
- Css Free drug Concentration (molarity) ([3]; 20 mg capsule p.o. q.d.): 44 nM
- Css Free drug Concentration (mass/volume) ([3]; 20 mg capsule p.o. t.i.d.): 44.2 µg/L
- Css Free drug Concentration (molarity) ([3]; 20 mg capsule p.o. t.i.d.): 131 nM
- Css Free drug Concentration (mass/volume) ([3]; 20 mg tablet p.o. b.i.d.): 28.3 µg/L
- Css Free drug Concentration (molarity) ([3]; 20 mg tablet p.o. b.i.d.): 84 nM
- Css Total Concentration (mass/volume) ([3]; 20 mg tablet p.o. q.d.): 53 nM
- Css Free drug Concentration (mass/volume) ([3]; 20 mg tablet p.o. q.d.): 14.2 µg/L
- Css Free drug Concentration (molarity) ([3]; 20 mg tablet p.o. q.d.): 42 nM
- Css Free drug Concentration (mass/volume) ([3]; 20 mg tablet p.o. t.i.d.): 42.5 µg/L
- Css Free drug Concentration (molarity) ([3]; 20 mg tablet p.o. t.i.d.): 126 nM
- Css Free drug Concentration (mass/volume) [3, 22]: 44.3 µg/L
- Css Free drug Concentration (molarity) [3, 22]: 131 nM
- Css Free drug Concentration (mass/volume) [3, 23]: 64.6 µg/L
- Css Free drug Concentration (molarity) [3, 23]: 192 nM
- Css Free drug Concentration (mass/volume) ([3]; 60 mg tablet p.o. t.i.d.): 115.4 µg/L
- Css Free drug Concentration (molarity) ([3]; 60 mg tablet p.o. t.i.d.): 340 nM
- Css Free drug Concentration (mass/volume) ([3]; 120 mg IV every 8 h): 1,032 μg/l
- Css Free drug Concentration (molarity) ([3]; 120 mg IV every 8 h): 874 nM
- clinical symptoms after initiating treatment [4]: relief of symptoms overnight
- EC50 [5]: 105 nM
- IC50 ([6]; read-out: IC50 Neutrophil H2 O2- assay, Concentration (molarity)): 201 nM
- IC50 Neutrophil H2 O2- assay, Concentration (mass/volume) [6]: 0.067 µg/mL (≈ 0.199 µM)
- effect in more recent retrospective studies [7]: no effect
- IC50 ([8]; read-out: IC50 Neutrophil H2 cAMP assay, Concentration (molarity)): 24 nM
- IC50 Neutrophil H2 cAMP assay, Concentration (mass/volume) [8]: 0.008 µg/mL (≈ 0.0237 µM)
- IC50 ([9]; read-out: IC50 Eosinophil H2 cAMP assay, Concentration (molarity)): 158 nM
- IC50 Eosinophil H2 cAMP assay, Concentration (mass/volume) [9]: 0.0536 µg/mL (≈ 0.159 µM)
- arrestin recruitment efficacy [10]: about 15 % that of histamine
- IC50 [11, 24]: > 100000 nM
- IC90 [11, 24]: > 100000 nM
- inhibition of SARS-CoV-2 infection [11]: no inhibition
- displacement of radioligand probe, sigma-1 [12]: no detectable displacement
- Ki [13]: ~14 nM and 14 nM
- effect on histamine-induced cAMP increase [14]: blocks histamine-induced cAMP increase
- activation of bradykinin receptor B1 [15]: no activation
- agonist activity at GPCRs other than H2 [16]: no agonist activity
- activation of bradykinin receptor B2 [17]: no activation
- IC50 ([18]; read-out: IC50 Histamine H2, Concentration (molarity), ref Lin et al., 1987, 1991): 39 nM
- IC50 Histamine H2, Concentration (mass/volume) ([18]; ref Lin et al., 1987, 1991): 0.013 µg/mL (≈ 0.0385 µM)
- CC50 [19]: > 100000 nM

SMILES: NCCc1c[nH]cn1 [histamine]
- stimulation of cAMP production ([2]; N = 2): 20 fold of basal

SMILES: CN/C(=N/CCSCc1nc[nH]c1C)NC#N [Cimetidine]
- Css Free drug Concentration (mass/volume) ([3]; 200 mg tablet p.o. q.d.): 140 µg/L
- Css Free drug Concentration (mass/volume) ([3]; 300 mg tablet p.o. q.d.): 180.1 µg/L
- Css Free drug Concentration (molarity) ([3]; 300 mg tablet p.o. q.d.): 720 nM

SMILES: CCN(CCO)CCCC(C)Nc1ccnc2cc(Cl)ccc12 (stereo not shown) [Hydroxychloroquine]
- Cytotoxicity: CC10 [20]: 216 nM
- CC50 at 48 h [21]: > 20000 nM
- IC50 [11, 25]: 1440 nM
- IC90 [11, 25]: 3470 nM
- inhibition of SARS-CoV-2 infection [11]: demonstrated antiviral activity

SMILES: CCC(CC)COC(=O)[C@H](C)N[P@](=O)(OC[C@H]1O[C@@](C#N)(c2ccc3c(N)ncnn23)[C@H](O)[C@@H]1O)Oc1ccccc1 [Remdesivir]
- Cytotoxicity: CC10 [20]: > 20000 nM
- IC50 [11, 25]: 966 nM
- IC90 [11, 25]: 1770 nM
- inhibition of SARS-CoV-2 infection [11]: demonstrated antiviral activity
- CC50 [19]: > 20000 nM
